Tests used:
[1] = molecular target: T1, Human serotonin transporter (SERT) (Homo sapiens, UniProt P31645); assay: In vitro transporter affinity assay (SPA radioligand binding), SERT; conditions: membranes of transfected HEK293 cells, 3H-citalopram; read-out: Ki hSERT
T1 construct: expressed in transfected cells; host or cells: HEK293 (membrane stocks)
Method: (§1) Human serotonin transporter (SERT), norepinephrine transporter (NET), or dopamine transporter (DAT) are cloned into a pcDNA3 vector and stably transfected into HEK293 cells. […] Fluoxetine (100 μM) is used to determine non-specific binding, and venlafaxine is used as a positive control. NET membranes are used at a concentration of 8 μg/well in assay buffer containing 50 mM Tris, 300 mM NaCl, and 5 mM KCl (pH 7.4). ^3H-Nisoxetine is used as the tracer, 100 μM desipramine serves as a measure of non-specific binding, and nisoxetine is used as the positive control. For DAT binding assays, the assay buffer is the same as for SERT, membranes are used at 20 μg/well, 100 μM nomifensine is used to determine non-specific binding, ^3H-WIN 35428 (Perkin Elmer) serves as the radiotracer, and nomifensine is used as the positive control. In all cases, 0.5 mg/well of wheat-germ agglutinin scintillation proximity assay beads (WGA-SPA, GE Health Sciences) are used to capture the membranes, and plates are incubated for 3 hours at room temperature. Radioactivity is measured and Ki values calculated using a four-parameter logistic curve fitting program (ActivityBase v5.3.1.22).

serotonin transporter = molecular target: T2, serotonin transporter (Rattus norvegicus, UniProt P31652); assay: In vivo transporter occupancy assay; conditions: 1 hr. post dosing
T2 construct: from tissue; host or cells: rat frontal cortex, in vivo
Method: Male Sprague-Dawley rats weighing 240-280 gm in groups of three are used to determine serotonin transporter occupancy. Animals are fasted at least 12 hr. before the start of each experiment. Animals are orally administered vehicle or 0.10, 0.33, 1.00, 3.33 or 10.00 mg/kg doses of test compound in 4% Glucose in 25 mM Phosphate buffer, (pH=3.0) containing 0.1, 0.33, 1, 3.33, or 10% CAPTISOL™ (concentration of CAPTISOL™ (%)=dose of test compound (mg/kg)). […] After an additional 40 min., rats are sacrificed via cervical dislocation, and a portion of the frontal cortex is removed and placed on dry ice. An additional control group of three rats is dosed with paroxetine maleate at 12 mg/kg, i.v., followed by N,N-dimethyl-2-(2-amino-4-cyanophenylthio)-benzylamine (10 μg/kg) 1 hr. later.
Tissues are allowed to thaw and then four volumes (w/v) of acetonitrile containing 0.1% formic acid is added. Samples are homogenized using an ultrasonic dismembrator probe and centrifuged for 16 min. at 14,000×g. One volume of the supernatant is added to 3 volumes of water in an autosampler vial and vortexed. Separation is achieved with a Zorbax C18 HPLC column and a mobile phase gradient of from 20% to 90% acetonitrile/water, each with 0.1% formic acid. The total HPLC run time is 3.5 min with an additional 2.0 min re-equilibration time. An API4000 triple quadrupole mass spectrometer (Applied Biosystems, Foster City, Calif., USA) operating in MRM mode is used for detection. The ion transition monitored is 284.1/239.1 m/z for N,N-dimethyl-2-(2-amino-4-cyanophenylthio)-benzylamine.
The level of N,N-dimethyl-2-(2-amino-4-cyanophenylthio)-benzylamine (tracer) in the cortex of vehicle-pretreated animals represents the sum of nonspecific and specific binding and is assigned the value of 0% occupancy (all receptors available to the tracer). The lower level of tracer in animals pretreated with the very high intravenous dose of paroxetine maleate, the positive control group, represents the nonspecific binding and is assigned the value of 100% occupancy (no receptors available to the tracer). Levels of tracer in the cortex following oral administration of test compound are interpolated linearly between these two extremes in order to determine the percent serotonin transporter occupancy. Data are expressed as means±SEM (n=3/group) calculated using Prism version 3.0 (GraphPad Software Inc., San Diego, Calif., USA). The ED80 values are obtained by fitting the data to a sigmoidal curve using nonlinear regression.

[2] = molecular target: T3, norepinephrine transporter (Rattus norvegicus, UniProt Q63380); assay: Alpha MMT: monoamine depletion inhibition assay; assay type: in vivo; conditions: rat cortex
T3 construct: from tissue; host or cells: rat cortex, in vivo
Description: DL-Para-chloroamphetamine (PCA) is transported into serotonergic neurons via the neuronal transporter and produces a long-lasting depletion of rat brain serotonin (5-HT) concentrations. Alpha-methyl-m-tyrosine (α-MMT) is a noradrenergic depleting agent that is β-hydroxylated to metaraminol in vivo and actively transported into norepinephrine (NE) neurons via the neuronal transporter producing a decrease in NE levels in rat brain. The depletion of rat brain 5-HT levels by PCA and rat cortical NE concentrations by α-MMT is blocked by agents with 5-HT and NE reuptake inhibitor activity. Compounds of the present invention may be assayed for their activity to prevent the depletion of rat brain 5-HT concentrations by PCA and the depletion of rat cortical NE concentrations by a-MMT in fed and fasted rats in vivo using the following methods.
Male Sprague Dawley rats weighing 160-180 grams are fasted overnight or allowed food ad libidum. […] All compounds are administered at 1 mL/kg. Animals are sacrificed 2 hr. after PCA or α-MMT administration. Tissues are dissected, frozen on dry ice and stored at −70° prior to analysis. […] The data are collected using an EZChrom™ chromatography data system (Scientific Software, San Ramon, Calif.) which calculates peak heights and sample concentrations. Analysis of variance, followed by Tukey's Honestly Significant Difference test post hoc, identifies significant differences between treatment groups (P≦0.05). Doses that antagonized the PCA- or α-MMT-induced depletion of monoamines by 50 percent, (ED50's) are calculated using a best-fit linear regression analysis.

[3] = molecular target: T4, Human norepinephrine transporter (NET) (Homo sapiens, UniProt P23975); assay: In vitro transporter affinity assay (SPA radioligand binding), NET; conditions: membranes of transfected HEK293 cells, 3H-nisoxetine; read-out: Ki hNET
T4 construct: expressed in transfected cells; host or cells: HEK293 (membrane stocks)
Method: as §1

[4] = molecular target: T5, Human dopamine transporter (DAT) (Homo sapiens, UniProt Q01959); assay: In vitro transporter affinity assay (SPA radioligand binding), DAT; conditions: membranes of transfected HEK293 cells, 3H-WIN 35428; read-out: Ki hDAT
T5 construct: expressed in transfected cells; host or cells: HEK293 (membrane stocks)
Method: as §1

Formalin induced pain = assay: Manual formalin test; assay type: in vivo; conditions: rat
Method: The manual formalin test is performed in custom-made Plexiglas boxes approx. 25 cm×25 cm×20 cm in size. A mirror placed at the back of the cage allows the unhindered observation of the formalin injected paw. Rats (Charles River (CRL) Sprague Dawley (SD)) are placed individually in the cubicles at least 30 min. prior to the experiment. All testing is conducted between 08:00 and 14:00 h and the testing room temperature is maintained at 21-23° C. Peripherally administered test compounds are dosed at varying times before the formalin challenge. Formalin (50 μL of a 5% solution in saline) is injected subcutaneously into the dorsal lateral surface of the right hind paw with a 27 gauge needle. Observation starts immediately after the formalin injection. Formalin induced pain is quantified by recording the number of seconds each licking event lasts in 5 min. intervals. The pain scoring is measured for 50 min. after the formalin injection. Two phases of pain behavior are observed as previously described (Wheeler-Aceto, H., Porreca, F. and Cowan, A., The rat paw formalin test: comparison of noxious agents, Pain 40 (1990) 229-238.). The early phase starts immediately after the formalin injection and lasts approximately 5 min., followed by the late phase that starts between minutes 10-15 with a maximum response typically observed around 25-35 min. after the formalin injection. After the 50 min. observation period, animals are sacrificed with CO2.
Of the different scoring parameters reported for the formalin test, the total time spent licking and biting the injected paw is considered to be most relevant. (Abbott et al., The formalin test: scoring properties of the first and second phases of the pain response in rats, Pain 60 (1995) 91-102; Coderre et al., The formalin test: a validation of the weighted-scores method of the behavioral pain rating, Pain 54 (1993) 43-50).) The early phase score is the sum of time spent licking (seconds) from time 0 to 5 min. The late phase score is obtained by adding the total number of seconds spent licking from minute 16 to min. 40 of the observation period. Data are presented as means with standard errors of means (±SEM). Data is evaluated by one-way analysis of variance (ANOVA) and the appropriate contrasts analyzed by Dunnett “t′ test for two sided comparisons. Differences are considered to be significant if the P-value is less than 0.05. (Abbott, supra.; Coderre, supra.; and Wheeler-Aceto, supra.)

[5] = molecular target: T6, Human serotonin (SERT) transporter (Homo sapiens, UniProt P31645); assay: In vitro inhibitor activity assay (3H-serotonin uptake); assay type: cell-based; conditions: transfected HEK293 cells, read-out: IC50 hSERT (serotonin reuptake)
T6 construct: expressed in transfected cells; host or cells: HEK293
Method: (§2) Human serotonin (SERT) or norepinephrine (NET) transporters are cloned into a pcDNA3 vector and stably transfected into HEK293 cells. Both assays are modified from methods described by Eshleman et al., J. Pharmacol. Exptl Ther., 289, 877-885 (1999)) and Wall et al., Mol. Pharmacol., 47, 544-550 (1995). Cells are grown on poly-D-lysine coated flasks or 96-well plates in D-MEM/F-12 3:1 (3 part of Dulbecco's Modified Eagle Medium in 1 part of Nutrient Mix F-12 medium) containing 5% fetal bovine serum, 250 μg/mL geneticin, and 20 mM Hepes. Cells are plated at 40,000 cells per well in 200 μL of medium and incubated for 18-24 hours at 37° C. prior to the assay. The assay uptake buffer consists of Krebs-Ringer bicarbonate stock supplemented with 1.26% sodium bicarbonate, 20 mM HEPES, and 100 μM each of pargyline and ascorbic acid. Following a 30 minute pre-incubation with the compound or indatraline (as a positive control), ^3H-serotonin or ^3H-norepinephrine is added for 1 min. and 50 sec. The ^3H-substrate is then removed, and the cells washed 4× with 100 μL of cold uptake buffer using multimek. […] Microscint™ 40 is added to each well and the radioactivity is quantitated for 1 min. per well. Results are analyzed as IC50 values using a four-parameter logistic curve fitting program (ActivityBase v5.3.1.22).

[6] = molecular target: T7, Human norepinephrine (NET) transporter (Homo sapiens, UniProt P23975); assay: In vitro inhibitor activity assay (3H-norepinephrine uptake); assay type: cell-based; conditions: transfected HEK293 cells, read-out: IC50 hNET (norepinephrine reuptake)
T7 construct: expressed in transfected cells; host or cells: HEK293
Method: as §2

T2 sequence (P31652 whole entry): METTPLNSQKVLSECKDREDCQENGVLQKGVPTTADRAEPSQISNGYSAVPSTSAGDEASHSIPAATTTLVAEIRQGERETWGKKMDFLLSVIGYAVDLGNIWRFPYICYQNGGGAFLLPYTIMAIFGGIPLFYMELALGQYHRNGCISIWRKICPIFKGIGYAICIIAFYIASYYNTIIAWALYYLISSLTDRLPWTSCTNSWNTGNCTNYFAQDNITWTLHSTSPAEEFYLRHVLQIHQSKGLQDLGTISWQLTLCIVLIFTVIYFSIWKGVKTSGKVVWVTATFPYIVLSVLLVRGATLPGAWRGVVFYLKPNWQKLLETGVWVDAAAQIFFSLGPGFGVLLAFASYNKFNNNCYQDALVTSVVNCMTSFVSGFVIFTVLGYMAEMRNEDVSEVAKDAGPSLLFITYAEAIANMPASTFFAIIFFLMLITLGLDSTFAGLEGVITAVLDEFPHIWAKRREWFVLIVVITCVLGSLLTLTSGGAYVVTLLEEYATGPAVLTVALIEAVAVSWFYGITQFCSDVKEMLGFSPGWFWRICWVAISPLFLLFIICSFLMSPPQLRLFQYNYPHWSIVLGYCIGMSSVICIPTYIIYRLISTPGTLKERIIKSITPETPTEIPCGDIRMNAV
T3 sequence (Q63380 1-617): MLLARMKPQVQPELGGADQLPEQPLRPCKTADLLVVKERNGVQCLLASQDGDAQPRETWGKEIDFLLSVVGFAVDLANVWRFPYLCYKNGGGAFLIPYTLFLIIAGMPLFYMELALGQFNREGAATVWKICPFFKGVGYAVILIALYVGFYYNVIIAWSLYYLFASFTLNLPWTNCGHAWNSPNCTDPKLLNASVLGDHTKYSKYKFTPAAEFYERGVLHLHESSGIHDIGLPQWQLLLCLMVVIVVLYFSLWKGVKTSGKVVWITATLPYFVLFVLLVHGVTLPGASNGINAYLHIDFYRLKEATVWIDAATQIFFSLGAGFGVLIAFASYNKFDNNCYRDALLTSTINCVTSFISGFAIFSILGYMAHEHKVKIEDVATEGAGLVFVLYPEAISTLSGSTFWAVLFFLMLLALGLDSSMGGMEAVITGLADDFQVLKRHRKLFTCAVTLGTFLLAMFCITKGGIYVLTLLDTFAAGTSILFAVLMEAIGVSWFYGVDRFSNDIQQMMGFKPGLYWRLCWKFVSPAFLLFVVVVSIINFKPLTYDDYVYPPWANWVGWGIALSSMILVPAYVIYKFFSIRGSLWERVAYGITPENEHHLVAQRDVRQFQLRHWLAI
T5 sequence (Q01959 whole entry): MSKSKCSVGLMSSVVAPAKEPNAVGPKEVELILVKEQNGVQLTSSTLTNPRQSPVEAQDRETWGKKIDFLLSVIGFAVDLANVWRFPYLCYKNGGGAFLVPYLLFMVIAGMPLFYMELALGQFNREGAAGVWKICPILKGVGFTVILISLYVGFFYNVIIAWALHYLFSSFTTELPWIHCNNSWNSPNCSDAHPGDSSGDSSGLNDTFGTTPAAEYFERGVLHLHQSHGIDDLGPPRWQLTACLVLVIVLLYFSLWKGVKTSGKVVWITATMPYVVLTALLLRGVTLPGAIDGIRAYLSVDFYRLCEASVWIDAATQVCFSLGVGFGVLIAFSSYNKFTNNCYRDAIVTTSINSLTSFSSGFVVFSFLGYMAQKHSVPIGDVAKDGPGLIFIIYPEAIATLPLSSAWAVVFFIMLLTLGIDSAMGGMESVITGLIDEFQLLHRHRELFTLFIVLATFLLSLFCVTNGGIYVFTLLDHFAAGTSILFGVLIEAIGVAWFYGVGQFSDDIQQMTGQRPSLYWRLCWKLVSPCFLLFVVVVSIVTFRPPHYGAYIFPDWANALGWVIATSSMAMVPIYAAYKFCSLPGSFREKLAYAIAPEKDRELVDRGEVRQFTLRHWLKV
T7 sequence (P23975 whole entry): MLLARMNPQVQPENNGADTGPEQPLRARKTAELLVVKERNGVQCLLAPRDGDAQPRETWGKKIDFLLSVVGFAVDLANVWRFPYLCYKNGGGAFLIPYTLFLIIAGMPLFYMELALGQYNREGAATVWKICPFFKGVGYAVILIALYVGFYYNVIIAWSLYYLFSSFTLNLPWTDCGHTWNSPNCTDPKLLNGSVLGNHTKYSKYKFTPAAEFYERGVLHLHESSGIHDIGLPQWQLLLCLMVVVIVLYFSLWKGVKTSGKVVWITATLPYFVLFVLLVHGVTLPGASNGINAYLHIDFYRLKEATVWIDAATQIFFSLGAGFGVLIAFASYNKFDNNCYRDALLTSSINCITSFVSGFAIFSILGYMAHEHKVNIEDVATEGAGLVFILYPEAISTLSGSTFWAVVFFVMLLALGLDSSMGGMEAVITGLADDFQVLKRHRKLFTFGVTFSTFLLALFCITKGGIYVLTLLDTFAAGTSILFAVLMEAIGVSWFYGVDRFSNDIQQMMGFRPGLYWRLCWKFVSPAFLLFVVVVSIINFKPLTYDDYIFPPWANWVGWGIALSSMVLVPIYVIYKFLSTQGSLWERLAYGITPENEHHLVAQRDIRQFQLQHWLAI
T4 sequence (P23975 whole entry): as above
T6 sequence (P31645 whole entry): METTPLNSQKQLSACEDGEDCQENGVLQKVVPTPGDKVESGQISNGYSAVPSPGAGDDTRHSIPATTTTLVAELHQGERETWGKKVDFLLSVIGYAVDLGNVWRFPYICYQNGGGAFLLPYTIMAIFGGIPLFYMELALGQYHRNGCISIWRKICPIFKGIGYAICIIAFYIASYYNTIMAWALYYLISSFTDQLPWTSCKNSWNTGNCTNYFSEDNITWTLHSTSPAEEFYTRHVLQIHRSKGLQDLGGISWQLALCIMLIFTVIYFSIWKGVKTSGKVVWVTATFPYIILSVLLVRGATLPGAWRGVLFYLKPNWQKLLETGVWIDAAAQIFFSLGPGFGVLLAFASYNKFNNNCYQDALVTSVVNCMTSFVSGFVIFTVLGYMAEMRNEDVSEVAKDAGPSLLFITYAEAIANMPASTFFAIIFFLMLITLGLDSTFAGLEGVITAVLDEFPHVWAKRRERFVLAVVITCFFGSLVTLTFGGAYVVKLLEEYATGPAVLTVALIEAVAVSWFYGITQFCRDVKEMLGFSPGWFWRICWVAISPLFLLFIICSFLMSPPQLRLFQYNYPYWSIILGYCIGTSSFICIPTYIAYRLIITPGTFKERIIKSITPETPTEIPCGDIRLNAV
T1 sequence (P31645 whole entry): as above

COc1ccc(O[C@@H](CC(C)C)[C@H]2CCNC2)c(C)n1.O=C(O)C(O)C(O)C(=O)O [EXAMPLE 19, (3S)-3-(1-(6-methoxy-2-methyl-3-pyridyloxy)-3-methyl-butyl)-pyrrolidine, L-tartrate (S-2)]
Ki [1]: 0.199 ± 0.02 nM
receptor occupancy at 0.3 mg/kg (serotonin transporter; po, rat frontal cortex, 0.3 mg/kg p.o.): 5.9%
receptor occupancy at 1 mg/kg (serotonin transporter; po, rat frontal cortex, 1 mg/kg p.o.): 25%
receptor occupancy at 3 mg/kg (serotonin transporter; po, rat frontal cortex, 3 mg/kg p.o.): 43.3%
receptor occupancy at 10 mg/kg (serotonin transporter; po, rat frontal cortex, 10 mg/kg p.o.): 94%
receptor occupancy at 30 mg/kg (serotonin transporter; po, rat frontal cortex, 30 mg/kg p.o.): 106%
absolute ED80 (serotonin transporter occupancy) (serotonin transporter; rat, p.o.): 7.1 mg/kg
inhibition at 3 mg/kg ([2]; po, 3 mg/kg p.o., read-out: % Inhibition (α-MMT induced depletion of norepinephrine)): 21%
inhibition at 10 mg/kg ([2]; po, 10 mg/kg p.o., read-out: % Inhibition (α-MMT induced depletion of norepinephrine)): 79%
inhibition at 30 mg/kg ([2]; po, 30 mg/kg p.o., read-out: % Inhibition (α-MMT induced depletion of norepinephrine)): 115%
% Inhibition (α-MMT induced depletion of norepinephrine) ([2]; 0.3 mg/kg p.o.): 7.0%
% Inhibition (α-MMT induced depletion of norepinephrine) ([2]; 1 mg/kg p.o.): 5.6%
Ki [3]: 1.08 ± 0.32 nM
Ki [4]: 461 ± 72 nM
ED50 (Formalin induced pain; po, p.o., read-out: ED50 (reduction of pain behavior)): 13.4 mg/kg
% reduction in total time licking (Formalin induced pain; 1 mg/kg p.o.): 4.5%
% reduction in total time licking (Formalin induced pain; 3 mg/kg p.o.): 14.4%
% reduction in total time licking (Formalin induced pain; 10 mg/kg p.o.): 38.0%
% reduction in total time licking (Formalin induced pain; 30 mg/kg p.o.): 78.4%
IC50 [5]: 2.15 ± 0.7 nM
IC50 [6]: 7.34 ± 1.48 nM

From patent publication US8173821B2, “Serotonin and norepinephrine reuptake inhibitor” (Eli Lilly and Company, priority 2009, dated 2012)
